Data: US20090197944A1, “AGENT FOR IMPROVING MUSCLE FORCE” (KAO CORPORATION, priority 2006, published 2009)

What follows are compounds tested on isolated soleus muscle (assay: Electrical stimulation of isolated muscle (fatigue resistance)). Conditions: 50 μM in Krebs solution, 37° C., equilibrated three minutes, stimulation 330 ms/2-sec, 40 Hz; vs control solution.
Type: ex vivo tissue, mice
Experimental: Mice were bred in a similar manner to that for the control group of Test Example 1. Thereafter, soleus muscle was removed from each mouse. The isolated soleus muscle was fixed to a transducer (FORT100, product of WPI) in 37° C. Krebs solution (aeration: 95%-oxygen, 5%-carbon dioxide). The effect of catechins on the isolated muscle was analyzed. Specifically, each of eight catechin species (catechin, epicatechin, gallocatechin, epigallocatechin, catechin gallate, epicatechin gallate, gallocatechin gallate, and epigallocatechin gallate) was dissolved in a Krebs solution to a concentration of 50 μM. Each muscle piece was equilibrated in each solution for three minutes, and electrically stimulated (330 ms/2-sec). The frequency of stimulation was 40 Hz. […] A Krebs solution to which no catechin species had been added was employed as a control solution.

SMILES	muscle force after 1 minute stimulation as fatigue index (ratio to muscle force at the start of electrical stimulation defined as 1)
O=C(O[C@@H]1Cc2c(O)cc(O)cc2O[C@@H]1c1ccc(O)c(O)c1)c1cc(O)c(O)c(O)c1 [epicatechin gallate]	improved muscle fatigue resistance
O=C(O[C@@H]1Cc2c(O)cc(O)cc2O[C@@H]1c1cc(O)c(O)c(O)c1)c1cc(O)c(O)c(O)c1 [epigallocatechin gallate]	improved muscle fatigue resistance
O=C(O[C@@H]1Cc2c(O)cc(O)cc2O[C@H]1c1cc(O)c(O)c(O)c1)c1cc(O)c(O)c(O)c1 [gallocatechin gallate]	improved muscle fatigue resistance
